Experimental findings from ChEMBL document CHEMBL2321683, “Discovery of potent, selective and orally bioavailable imidazo[1,5-a]pyrazine derived ACK1 inhibitors” (Bioorg Med Chem Lett, 2013) are described below.

Data set [1] deals with T1, Activated CDC42 kinase 1 (Homo sapiens, UniProt Q07912).
Target sequence in this assay (Q07912 whole entry): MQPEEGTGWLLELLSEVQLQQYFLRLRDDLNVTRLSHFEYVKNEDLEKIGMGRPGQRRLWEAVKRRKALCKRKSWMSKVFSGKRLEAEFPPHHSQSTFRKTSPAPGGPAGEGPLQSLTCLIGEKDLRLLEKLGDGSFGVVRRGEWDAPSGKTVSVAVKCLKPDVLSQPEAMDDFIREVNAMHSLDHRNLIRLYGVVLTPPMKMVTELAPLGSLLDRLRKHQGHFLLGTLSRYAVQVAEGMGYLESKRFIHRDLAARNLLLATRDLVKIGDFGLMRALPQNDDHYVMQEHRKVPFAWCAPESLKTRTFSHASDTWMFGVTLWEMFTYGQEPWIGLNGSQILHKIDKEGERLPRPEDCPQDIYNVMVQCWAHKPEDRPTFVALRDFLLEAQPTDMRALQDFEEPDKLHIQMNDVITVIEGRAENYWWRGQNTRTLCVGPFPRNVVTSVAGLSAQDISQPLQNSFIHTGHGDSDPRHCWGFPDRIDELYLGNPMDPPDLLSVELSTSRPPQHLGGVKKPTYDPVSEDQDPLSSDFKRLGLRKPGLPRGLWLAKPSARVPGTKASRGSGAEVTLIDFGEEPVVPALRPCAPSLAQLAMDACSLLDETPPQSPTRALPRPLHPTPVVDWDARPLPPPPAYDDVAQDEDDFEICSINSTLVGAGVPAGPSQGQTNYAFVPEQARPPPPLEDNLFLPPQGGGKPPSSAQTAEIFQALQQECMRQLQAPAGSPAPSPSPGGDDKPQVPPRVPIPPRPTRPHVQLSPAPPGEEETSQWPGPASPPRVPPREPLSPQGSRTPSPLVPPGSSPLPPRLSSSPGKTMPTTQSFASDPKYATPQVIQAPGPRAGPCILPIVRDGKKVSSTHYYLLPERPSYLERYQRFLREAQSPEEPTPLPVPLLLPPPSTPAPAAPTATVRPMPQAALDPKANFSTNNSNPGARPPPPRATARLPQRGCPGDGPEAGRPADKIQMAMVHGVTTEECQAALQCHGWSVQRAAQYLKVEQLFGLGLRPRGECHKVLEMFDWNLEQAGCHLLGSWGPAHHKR
Data set [2] is described as follows: Clearance in mouse at 2 mg/kg, iv. In kind it is ADME, organism-based. On the set-up: dose 2 mg/kg, route intravenous. Particulars: in vivo.
Data set [3] is described as follows: Volume of distribution at steady state in mouse at 2 mg/kg, iv. The data set is classed as ADME, organism-based. Details: dose 2 mg/kg, route intravenous. The conditions noted are these: in vivo, read-out: Vdss.
Data set [4] can be described thus: Half life in mouse at 20 mg/kg, po. In kind it is ADME, organism-based. On the set-up: dose 20 mg/kg, route oral. Particulars: in vivo.
Data set [5] deals with Mus musculus. Put plainly: (§1) Oral bioavailability in mouse at 20 mg/kg. In kind it is ADME, organism-based. Particulars: in vivo.
Data set [6] can be described thus: AUC in mouse at 20 mg/kg, po. In kind it is ADME, organism-based. Details: dose 20 mg/kg, route oral. The conditions noted are these: plasma.
Data set [7] is described as follows: Cmax in mouse at 20 mg/kg, po. In kind it is ADME, organism-based. Details: dose 20 mg/kg, route oral. Particulars: in vivo.
The nature of data set [8]: as §1. The data set is classed as ADME, organism-based. Particulars: in vivo.
In data set [9] the target is T1, Activated CDC42 kinase 1. The source holds these as a separate data set.
Target sequence in this assay (Q07912 whole entry): as above
Data set [10] addresses T2, Tyrosine-protein kinase TXK (Homo sapiens) (UniProt P42681).
T2 sequence (whole entry): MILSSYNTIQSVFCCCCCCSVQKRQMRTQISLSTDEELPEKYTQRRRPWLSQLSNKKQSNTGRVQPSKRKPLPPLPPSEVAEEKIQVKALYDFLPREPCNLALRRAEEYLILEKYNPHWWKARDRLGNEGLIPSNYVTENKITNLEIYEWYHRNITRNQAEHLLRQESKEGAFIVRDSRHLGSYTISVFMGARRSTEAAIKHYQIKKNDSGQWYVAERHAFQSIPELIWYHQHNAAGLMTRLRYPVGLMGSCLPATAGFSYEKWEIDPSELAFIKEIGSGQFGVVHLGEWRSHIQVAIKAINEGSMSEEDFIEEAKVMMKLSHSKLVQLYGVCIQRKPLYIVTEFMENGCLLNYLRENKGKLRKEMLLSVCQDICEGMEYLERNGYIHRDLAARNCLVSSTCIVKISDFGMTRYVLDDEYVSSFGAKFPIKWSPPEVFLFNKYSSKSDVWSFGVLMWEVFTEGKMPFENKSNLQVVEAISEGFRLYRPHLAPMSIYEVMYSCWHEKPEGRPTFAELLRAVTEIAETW
Briefly: Inhibition of TXK (unknown origin) at 1 uM.

Data set [11] deals with Tyrosine-protein kinase Yes (Homo sapiens) (UniProt P07947). Briefly: Inhibition of YES (unknown origin) at 1 uM.
Data set [12] addresses Tyrosine-protein kinase Srms (Homo sapiens) (UniProt Q9H3Y6). Put plainly: Inhibition of SRMS (unknown origin) at 1 uM.
The target of data set [13] is T3, Tyrosine-protein kinase Tec (Homo sapiens) (UniProt P42680).
T3 sequence (whole entry): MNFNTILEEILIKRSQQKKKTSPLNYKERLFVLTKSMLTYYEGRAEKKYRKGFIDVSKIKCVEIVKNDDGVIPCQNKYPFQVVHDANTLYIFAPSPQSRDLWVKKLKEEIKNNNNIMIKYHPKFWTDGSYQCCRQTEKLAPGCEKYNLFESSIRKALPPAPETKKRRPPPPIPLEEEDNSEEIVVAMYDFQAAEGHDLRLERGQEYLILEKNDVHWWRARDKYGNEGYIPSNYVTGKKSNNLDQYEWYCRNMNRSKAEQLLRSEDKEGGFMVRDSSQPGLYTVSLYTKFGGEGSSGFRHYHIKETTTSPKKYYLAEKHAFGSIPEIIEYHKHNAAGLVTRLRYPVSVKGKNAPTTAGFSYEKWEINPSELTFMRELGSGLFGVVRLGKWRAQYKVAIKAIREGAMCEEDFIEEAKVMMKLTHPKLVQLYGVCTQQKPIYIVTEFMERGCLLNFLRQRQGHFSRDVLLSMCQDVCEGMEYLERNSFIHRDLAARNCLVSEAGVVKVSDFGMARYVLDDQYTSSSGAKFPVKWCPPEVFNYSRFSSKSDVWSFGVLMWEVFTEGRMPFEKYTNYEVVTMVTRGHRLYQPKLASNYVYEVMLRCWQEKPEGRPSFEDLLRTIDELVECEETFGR
Put plainly: Inhibition of TEC (unknown origin) at 1 uM.

In data set [14] the target is Proto-oncogene tyrosine-protein kinase Src (Homo sapiens) (UniProt P12931). Briefly: Inhibition of SRC (unknown origin) at 1 uM.
In data set [15] the target is Tyrosine-protein kinase Lyn (Homo sapiens) (UniProt P07948). Briefly: Inhibition of LYNB (unknown origin) at 1 uM.
In data set [16] the target is Tyrosine-protein kinase Lck (Homo sapiens) (UniProt P06239). Put plainly: Inhibition of LCK (unknown origin) at 1 uM.
Data set [17] addresses Tyrosine-protein kinase HCK (Homo sapiens) (UniProt P08631). Briefly: Inhibition of HCK (unknown origin) at 1 uM.
In data set [18] the target is Tyrosine-protein kinase Fyn (Homo sapiens) (UniProt P06241). Put plainly: Inhibition of FYN (unknown origin) at 1 uM.
Data set [19] deals with Tyrosine-protein kinase Fgr (Homo sapiens) (UniProt P09769). Put plainly: Inhibition of FGR (unknown origin) at 1 uM.
Data set [20] has as its target Tyrosine-protein kinase FRK (Homo sapiens) (UniProt P42685). Briefly: Inhibition of FRK (unknown origin) at 1 uM.
Data set [21] concerns the target Tyrosine-protein kinase Blk (Homo sapiens) (UniProt P51451). Put plainly: Inhibition of BLK (unknown origin) at 1 uM.
A short description of data set [22]: Permeability of the compound by PAMPA at pH 7.4. The data set is classed as ADME. Particulars: read-out: permeability.
The nature of data set [23]: Permeability of the compound by PAMPA at pH 5. The data set is classed as ADME. Particulars: read-out: permeability. On the technique in general: The PAMPA barrier holds no transporters, so it reflects passive diffusion.
Data set [24] is described as follows: Aqueous solubility of the compound at pH 7.4. The data set is classed as physicochemical.
Data set [25] deals with Cytochrome P450 3A4 (Homo sapiens, UniProt P08684). Briefly: Inhibition of CYP3A4 (unknown origin). The data set is classed as ADME.
Data set [26] has as its target Cytochrome P450 2D6 (Homo sapiens, UniProt P10635). Briefly: Inhibition of CYP2D6 (unknown origin). In kind it is ADME.
In data set [27] the target is Cytochrome P450 2C9 (Homo sapiens, UniProt P11712). Put plainly: Inhibition of CYP2C9 (unknown origin). The data set is classed as ADME.
Data set [28] has as its target T4, Cytochrome P450 1A2 (Homo sapiens, UniProt P05177).
T4 sequence (P05177 whole entry): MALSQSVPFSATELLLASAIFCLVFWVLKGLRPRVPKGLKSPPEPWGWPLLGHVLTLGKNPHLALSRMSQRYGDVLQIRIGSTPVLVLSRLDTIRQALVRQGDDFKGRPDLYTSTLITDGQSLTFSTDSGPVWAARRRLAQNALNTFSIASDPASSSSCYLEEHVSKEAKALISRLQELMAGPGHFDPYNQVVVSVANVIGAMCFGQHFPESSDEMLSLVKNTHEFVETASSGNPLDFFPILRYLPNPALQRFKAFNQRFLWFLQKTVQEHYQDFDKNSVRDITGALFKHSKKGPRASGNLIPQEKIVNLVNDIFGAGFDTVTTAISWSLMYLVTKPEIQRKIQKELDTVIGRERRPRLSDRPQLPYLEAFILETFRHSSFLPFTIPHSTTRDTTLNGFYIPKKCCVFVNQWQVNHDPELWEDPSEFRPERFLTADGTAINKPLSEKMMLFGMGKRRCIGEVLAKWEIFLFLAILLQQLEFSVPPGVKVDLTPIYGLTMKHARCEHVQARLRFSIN
Put plainly: Inhibition of CYP1A2 (unknown origin). In kind it is ADME.

The target in data set [29] is T1, Activated CDC42 kinase 1. The conditions noted are these: 1 uM.
Target sequence in this assay (Q07912 whole entry, looked up): as the sequence (Q07912 whole entry) above

Sequence of Tyrosine-protein kinase Srms (Homo sapiens) (Q9H3Y6 whole entry): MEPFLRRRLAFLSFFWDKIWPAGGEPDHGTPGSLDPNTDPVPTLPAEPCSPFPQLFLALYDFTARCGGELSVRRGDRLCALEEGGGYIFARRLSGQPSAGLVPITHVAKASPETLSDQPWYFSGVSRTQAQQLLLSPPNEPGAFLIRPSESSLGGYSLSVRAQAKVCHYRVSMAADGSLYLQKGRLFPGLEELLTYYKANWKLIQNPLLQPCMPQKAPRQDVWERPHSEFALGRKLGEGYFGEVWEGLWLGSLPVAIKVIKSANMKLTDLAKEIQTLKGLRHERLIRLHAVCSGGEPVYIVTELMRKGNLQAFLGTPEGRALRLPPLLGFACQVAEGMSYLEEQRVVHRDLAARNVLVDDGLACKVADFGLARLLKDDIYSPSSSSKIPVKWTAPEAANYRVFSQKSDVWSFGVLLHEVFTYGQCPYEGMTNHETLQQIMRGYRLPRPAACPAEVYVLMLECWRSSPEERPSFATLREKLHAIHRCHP
Sequence of Proto-oncogene tyrosine-protein kinase Src (Homo sapiens) (P12931 2-536 limits assumed): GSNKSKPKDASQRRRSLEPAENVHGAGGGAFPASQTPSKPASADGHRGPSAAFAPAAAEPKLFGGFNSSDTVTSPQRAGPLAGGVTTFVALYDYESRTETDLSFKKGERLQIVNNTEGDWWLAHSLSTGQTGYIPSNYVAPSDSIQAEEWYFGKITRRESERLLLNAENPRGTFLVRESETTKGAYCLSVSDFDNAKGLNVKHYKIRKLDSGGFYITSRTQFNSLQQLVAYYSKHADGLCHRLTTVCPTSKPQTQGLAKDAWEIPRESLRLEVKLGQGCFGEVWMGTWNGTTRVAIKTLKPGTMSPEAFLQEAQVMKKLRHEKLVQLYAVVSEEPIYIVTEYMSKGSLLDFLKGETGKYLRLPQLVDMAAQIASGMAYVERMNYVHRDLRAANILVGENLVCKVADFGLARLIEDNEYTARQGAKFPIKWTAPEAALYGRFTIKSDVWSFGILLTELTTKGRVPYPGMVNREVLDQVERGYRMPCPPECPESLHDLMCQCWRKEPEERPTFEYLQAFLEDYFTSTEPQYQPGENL
Sequence of Tyrosine-protein kinase HCK (Homo sapiens) (P08631 2-526 limits assumed): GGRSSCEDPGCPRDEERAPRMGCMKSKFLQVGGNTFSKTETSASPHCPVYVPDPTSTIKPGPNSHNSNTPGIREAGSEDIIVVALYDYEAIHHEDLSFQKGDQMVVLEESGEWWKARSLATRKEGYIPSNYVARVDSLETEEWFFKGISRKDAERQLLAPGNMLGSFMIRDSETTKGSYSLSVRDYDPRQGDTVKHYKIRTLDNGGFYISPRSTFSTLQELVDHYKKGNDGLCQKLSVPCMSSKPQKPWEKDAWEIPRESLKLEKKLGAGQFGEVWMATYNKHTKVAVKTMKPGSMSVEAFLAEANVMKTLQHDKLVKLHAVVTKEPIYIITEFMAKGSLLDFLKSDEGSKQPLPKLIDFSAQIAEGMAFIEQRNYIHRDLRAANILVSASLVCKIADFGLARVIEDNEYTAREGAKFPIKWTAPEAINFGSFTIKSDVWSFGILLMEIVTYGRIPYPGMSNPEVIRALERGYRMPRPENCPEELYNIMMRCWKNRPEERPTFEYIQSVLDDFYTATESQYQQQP
Sequence of Tyrosine-protein kinase Fyn (Homo sapiens) (P06241 2-537 limits assumed): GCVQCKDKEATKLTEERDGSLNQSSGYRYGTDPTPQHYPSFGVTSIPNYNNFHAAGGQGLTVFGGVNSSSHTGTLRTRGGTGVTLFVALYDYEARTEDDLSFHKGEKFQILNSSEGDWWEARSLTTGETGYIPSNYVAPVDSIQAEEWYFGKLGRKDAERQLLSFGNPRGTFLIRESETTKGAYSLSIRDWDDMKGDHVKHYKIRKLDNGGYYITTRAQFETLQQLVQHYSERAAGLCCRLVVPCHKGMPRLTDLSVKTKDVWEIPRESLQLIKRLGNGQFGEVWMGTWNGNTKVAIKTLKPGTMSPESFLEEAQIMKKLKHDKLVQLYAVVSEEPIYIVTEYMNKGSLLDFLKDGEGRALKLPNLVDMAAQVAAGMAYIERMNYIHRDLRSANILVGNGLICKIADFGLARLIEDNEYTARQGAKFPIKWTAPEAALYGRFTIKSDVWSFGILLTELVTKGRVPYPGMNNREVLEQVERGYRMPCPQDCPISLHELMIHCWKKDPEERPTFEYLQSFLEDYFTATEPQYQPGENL
Sequence of Tyrosine-protein kinase Blk (Homo sapiens) (P51451 2-505 limits assumed): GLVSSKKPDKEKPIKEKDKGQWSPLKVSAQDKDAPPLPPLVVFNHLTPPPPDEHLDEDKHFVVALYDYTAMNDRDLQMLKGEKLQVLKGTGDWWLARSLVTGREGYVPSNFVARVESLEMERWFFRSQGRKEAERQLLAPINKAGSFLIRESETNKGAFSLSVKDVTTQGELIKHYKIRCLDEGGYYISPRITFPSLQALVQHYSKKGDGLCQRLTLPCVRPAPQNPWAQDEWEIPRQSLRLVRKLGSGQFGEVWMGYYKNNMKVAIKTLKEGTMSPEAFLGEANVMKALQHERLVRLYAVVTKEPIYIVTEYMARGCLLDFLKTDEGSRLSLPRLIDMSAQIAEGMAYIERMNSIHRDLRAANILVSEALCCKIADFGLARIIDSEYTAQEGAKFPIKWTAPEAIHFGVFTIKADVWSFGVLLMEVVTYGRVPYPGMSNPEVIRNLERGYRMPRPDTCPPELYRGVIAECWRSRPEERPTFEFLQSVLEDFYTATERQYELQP
Sequence of Tyrosine-protein kinase FRK (Homo sapiens) (P42685 whole entry): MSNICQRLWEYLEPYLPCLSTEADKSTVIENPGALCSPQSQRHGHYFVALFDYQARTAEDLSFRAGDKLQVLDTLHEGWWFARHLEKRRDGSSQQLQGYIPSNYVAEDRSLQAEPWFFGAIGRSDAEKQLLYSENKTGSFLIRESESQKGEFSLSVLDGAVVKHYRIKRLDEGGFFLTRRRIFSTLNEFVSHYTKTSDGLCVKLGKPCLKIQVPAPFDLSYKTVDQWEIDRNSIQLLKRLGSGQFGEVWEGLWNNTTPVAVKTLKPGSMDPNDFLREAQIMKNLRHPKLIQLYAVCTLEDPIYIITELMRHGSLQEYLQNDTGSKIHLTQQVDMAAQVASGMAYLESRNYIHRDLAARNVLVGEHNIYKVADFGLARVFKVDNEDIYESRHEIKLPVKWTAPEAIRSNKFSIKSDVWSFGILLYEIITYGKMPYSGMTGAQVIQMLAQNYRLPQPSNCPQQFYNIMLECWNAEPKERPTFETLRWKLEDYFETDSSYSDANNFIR
Sequence of Tyrosine-protein kinase Lck (Homo sapiens) (P06239 2-509 limits assumed): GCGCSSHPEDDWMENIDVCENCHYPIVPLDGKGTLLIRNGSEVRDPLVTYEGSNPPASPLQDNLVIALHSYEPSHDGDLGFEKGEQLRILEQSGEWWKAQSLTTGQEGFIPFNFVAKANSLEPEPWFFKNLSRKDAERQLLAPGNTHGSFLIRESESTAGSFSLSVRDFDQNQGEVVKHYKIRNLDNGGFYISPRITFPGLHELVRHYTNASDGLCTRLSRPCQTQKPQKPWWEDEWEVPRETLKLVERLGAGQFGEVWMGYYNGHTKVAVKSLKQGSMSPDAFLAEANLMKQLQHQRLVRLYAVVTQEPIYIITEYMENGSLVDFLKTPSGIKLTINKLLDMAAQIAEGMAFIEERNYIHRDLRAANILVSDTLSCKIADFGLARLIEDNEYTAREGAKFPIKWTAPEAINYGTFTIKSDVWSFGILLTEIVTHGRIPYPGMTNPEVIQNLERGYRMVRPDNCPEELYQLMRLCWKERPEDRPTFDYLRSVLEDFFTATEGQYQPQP

As for `c1ccc(-c2oc3ncnc(NC[C@@H]4CCCO4)c3c2-c2ccccc2)cc1`, half-maximal inhibition in [1] (IC50) required 620 nM.

For `COC(C)(C)CCn1nc(Nc2c(C)cccc2C)c2cnc(Nc3ccc(OCCN4CCCC4)c(F)c3)nc21`, the IC50 – broadly, the concentration needed to halve the response being measured – in data set [1] stood at 20 nM.

`C[C@]1(O)C[C@@H](c2nc(-c3ccc(C(F)(F)c4ccccc4)cc3)c3c(N)nccn32)C1`: the clearance (in general, the rate of elimination divided by the concentration) in [2] turned out to be 63 mL/min/kg. Besides, the Vd in data set [3] turned out to be 1.7 L/kg. In addition, the half-life (commonly how long it takes for the measured level to halve) in [4] is 4.3 h. Further, the F in [5] amounted to 160%. Besides, the AUC (usually concentration integrated over time) in [6] was 8540 ng·h/mL. In data set [7], the Cmax (commonly the highest concentration seen after dosing) was 5 µM.

Molecule `Nc1nccn2c(C3CCC3)nc(-c3ccc(Oc4ccccc4)cc3)c12` registered a clearance in [2] of 135 mL/min/kg. The Vd in data set [3] is 9 L/kg. The same molecule showed a half-life in [4] of 5.5 h. Moreover, in [8], the bioavailability was 50%. In addition, the AUC in data set [6] was 1240 ng·h/mL. The same molecule had a Cmax in data set [7] of 0.9 µM.

Consider `CC(O)(c1ccccc1)c1ccc(-c2nc([C@H]3C[C@@](C)(O)C3)n3ccnc(N)c23)cc1` (mixture of isomers), for which, in data set [2], the clearance amounted to 89 mL/min/kg. Besides, the Vd in data set [3] came to 3.3 L/kg. In [4], the half-life is 2.6 h. Moreover, the bioavailability in [8] came to 105%. Also, the AUC in data set [6] is 3940 ng·h/mL. In data set [7], the Cmax is 4.6 µM.

For `C[C@]1(O)C[C@@H](c2nc(-c3ccc(Oc4ccccc4)cc3)c3c(N)nccn32)C1`, in data set [2], the clearance was 62 mL/min/kg. For the same molecule, the Vd in [3] stood at 1.7 L/kg. The molecule further gave a half-life in [4] of 4.9 h. In addition, the bioavailability in data set [8] was 87%. Further, the AUC in [6] is 4680 ng·h/mL. In addition, in data set [7], the concentration peaked (Cmax) at 11.2 µM.

Turning to `c1ccc(-c2c(-c3ccc(OCCN4CCCC4)cc3)[nH]c3ncnc(NCC4SCCS4)c23)cc1`, the concentration for half-maximal inhibition (IC50) in data set [1] was found to be 10 nM.

`Nc1nccn2c(C3CCC3)nc(-c3ccc(C(O)c4ccccc4)cc3)c12` (stereo not given) yielded an IC50 in data set [9] of 280 nM.

In the case of `COc1cc(Oc2ccccc2)ccc1-c1nc([C@H]2C[C@@](C)(O)C2)n2ccnc(N)c12`, the inhibition in data set [10], in [11], in [12], in data set [13], in data set [14] and in data set [15] was > 80% throughout. Further, the inhibition in [16], in data set [17], in [18], in data set [19], in data set [20] and in [21] was > 80% each time. Also, the inhibition (commonly the relative decrease from the control value, in per cent) in data set [29] amounted to 100%. The values for the Papp in data set [22] and in [23] were 591 ×10⁻⁶ cm/s and 280 ×10⁻⁶ cm/s, respectively. Besides, the solubility (in general, the concentration that dissolves in the medium under given conditions) in data set [24] was > 100 µM. Also, the half-inhibitory concentration (IC50) in data set [25], in data set [26], in data set [27] and in data set [28] was > 20000 nM throughout. This molecule registered a clearance in data set [2] of 39 mL/min/kg. Further, the Vd in data set [3] worked out at 1.8 L/kg. Besides, the half-life in data set [4] is 3.8 h. Moreover, in data set [8], the bioavailability worked out at 98%. Further, the AUC in data set [6] worked out at 8480 ng·h/mL. This molecule also showed a Cmax in data set [7] of 5.9 µM.

In the case of `Nc1nccn2c(C3CCC3)nc(-c3ccn(Cc4ccccc4)c(=O)c3)c12`, the IC50 in data set [9] was > 10000 nM.
